No end group written: not given here.
Tested on: HC2 20d2/c cells, an NIH-3T3 cell line engineered to overexpress EGFRvIII
Assay: tumor regression / survival experiments in mice bearing EGFRvIII-overexpressing tumors
Assay type: in vivo, NIH Swiss mice
Conditions: for survival / effectiveness compared with Peptide G:KLH: Table 1 experiments; for survival / effectiveness compared with Peptide G:KLH / percent survival compared with Peptide G:KLH: in words; for percent survival compared with Peptide G:KLH: overall survival data (Table 2)
Protocol: The conjugated peptide vaccines were tested in tumor regression experiments and survival results were compared among animals treating with one of the conjugated peptide vaccines or KLH only.
Additional experiments were performed repeating the experiments described above.
For all experiments, the peptides were synthesized with the sequence as indicated with the cysteine at the carboxy terminus added for the purposes of conjugation. Peptides were then conjugated at a 1:1 w/w ratio to maleimide activated Keyhole Limpet Hemocyanin (KLH) for 24 hours. Following conjugation, the peptide:KLH conjugate was dialyzed against PBS to remove unconjugated peptide
NIH Swiss mice were inoculated subcutaneously in the right hand flank with 2×10^6 HC2 20d2/c cells, an NIH-3T3 cell line engineered to overexpress EGFRvIII. This cell line has been previously used to study anti-tumor responses to SEQ ID NO:2 conjugated to KLH (Moscatello et al., Cancer Res. 57:1419). On the 7th day following inoculation, mice were immunized with 100 μg of conjugated peptide in 100 μl of PBS emulsified with 100 μl of Freund's complete adjuvant. On the 14th day, mice were immunized with 100 μg of peptide in 100 μl of PBS emulsified with 100 μl of Freund's incomplete adjuvant.

[1] = Table 1, first experiments, s.c. tumor, immunized day 7 and day 14 with 100 μg conjugated peptide in Freund's adjuvant
[2] = Table 2, overall survival data compiled after additional repeat experiments, immunized day 7 and day 14 with 100 μg

Row | Substance | Survival [1] [%] | Survival [2] [%] | survival / effectiveness compared with Peptide G:KLH | percent survival compared with Peptide G:KLH
1 | Keyhole Limpet Hemocyanin [KLH only, reference compound] | 47 | 32 |  | 
2 | LEEKKANYVVTDHC:KLH (also: conjugated to KLH, site not given here) [Peptide A: KLH] | 90 | 80 | better survival rates | higher percent survival
3 | LEEKKPNYVVTDHC:KLH (also: conjugated to KLH, site not given here) [Peptide P: KLH] | 70 | 65 | better survival rates | higher percent survival
4 | LEEKKVNYVVTDHC:KLH (also: conjugated to KLH, site not given here) [Peptide V: KLH] | 70 | 70 | better survival rates | higher percent survival

Source: patent publication US9694060B2, “Peptide vaccines based on the EGFRvIII sequence for the treatment of tumors” (The Board of Trustees of the Leland Stanford Junior …, priority 2012, dated 2017)
